The source of these data is patent publication US20240336594A1, “SIX-MEMBERED ARYL OR HETEROARYL AMIDES, AND COMPOSITION AND USE THEREOF” (BETTA PHARMACEUTICALS CO., LTD, priority 2021, published 2024).

One assay concerns the target T1, MALT1 (Homo sapiens, UniProt Q9UDY8).
T1 sequence (Q9UDY8 1-824): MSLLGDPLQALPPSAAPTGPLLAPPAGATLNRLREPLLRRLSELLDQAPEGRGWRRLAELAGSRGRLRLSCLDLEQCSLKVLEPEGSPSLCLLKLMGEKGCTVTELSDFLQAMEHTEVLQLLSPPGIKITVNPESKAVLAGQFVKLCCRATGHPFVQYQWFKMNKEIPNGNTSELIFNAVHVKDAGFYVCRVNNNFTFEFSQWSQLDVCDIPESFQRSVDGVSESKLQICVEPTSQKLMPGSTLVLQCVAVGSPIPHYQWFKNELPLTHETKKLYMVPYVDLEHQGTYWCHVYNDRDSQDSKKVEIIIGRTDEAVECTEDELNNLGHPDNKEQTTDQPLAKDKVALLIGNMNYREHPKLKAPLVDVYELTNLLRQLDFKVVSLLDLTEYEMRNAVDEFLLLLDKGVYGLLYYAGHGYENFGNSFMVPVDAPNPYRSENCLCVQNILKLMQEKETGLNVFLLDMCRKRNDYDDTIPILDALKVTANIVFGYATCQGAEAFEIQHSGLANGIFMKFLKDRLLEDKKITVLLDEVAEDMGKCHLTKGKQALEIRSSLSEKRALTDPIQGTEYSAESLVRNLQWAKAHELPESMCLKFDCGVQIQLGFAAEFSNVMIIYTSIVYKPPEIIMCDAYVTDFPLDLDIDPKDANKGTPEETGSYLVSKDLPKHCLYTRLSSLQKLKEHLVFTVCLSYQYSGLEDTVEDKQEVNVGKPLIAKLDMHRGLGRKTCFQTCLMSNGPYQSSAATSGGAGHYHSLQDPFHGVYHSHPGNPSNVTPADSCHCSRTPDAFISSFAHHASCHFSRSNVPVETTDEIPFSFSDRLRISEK
Kind of assay: MALT1 protease inhibition assay (AMC-labeled peptide, fluorescence 360/460). The note with it: substrate Ac-LRSR-AMC, 15 min preincubation, 90 min at 25° C. Format: biochemical. An outline of the steps:
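Recombinant MALT1 preincubated with test compounds (10-point 1:3 dilutions in DMSO, duplicates) for 15 min at 25 °C in citrate-containing protease buffer with DTT, then AMC-labeled peptide added for 90 min at 25 °C. Inhibition normalized to no-compound (max) and no-enzyme (min) wells; IC50 from curve fit.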

Assay [1] relates to IL-2 secretion of Jurkat cells (PMA/Ionomycin inducing). In words: ELISA method to detect IL-2 secretion induced by PMA/Ionomycin. The assay is classed as cell-based. The conditions noted are these: Homo sapiens, 20 h. On the procedure: 12.5*10^3 Jurkat cells were seeded on a 96-well plate and incubated with various concentrations of compound solution for 30 min. Then, 500×PMA/Ionomycin stimulating factor was diluted with culture medium and added to the cell plate. […] The final concentrations of the compounds were 10000, 3333.3, 1111.1, 370.4, 123.5, 41.2, 13.7, 4.6, 1.5, 0 nM (The final concentration of DMSO is 0.5%). After incubation for 20 h, the supernatant was collected via centrifugation. The final IL-2 concentration was detected by ELISA method (IL-2 Duoset, R&D Systems, DY202). The signal value of each sample at a wavelength of 450 nm was collected by EnVision multifunctional microplate reader and converted to the IL-2 concentration via the ELISACalc.exe software. The IL-2 secretion inhibitory activity IC50 was fitted by GraphPad Prism software. The cell viability was tested simultaneously using the Cell-Titer Glo kit.
The compounds of the present invention show strong inhibitory effect on IL-2 secretion of Jurkat cells (PMA/Ionomycin inducing).
On the technique in general: ELISA stands for enzyme-linked immunosorbent assay.

The term IC50 denotes the midpoint of a concentration-inhibition curve. Higher therefore signals weaker potency.

As to `Cc1cc(-c2ccc(F)cc2N)c(F)cc1C(=O)Nc1cnc(-n2nccn2)c(Cl)c1` [Example A113], the values for the IC50 (on MALT1; in assay [1]) were not above 10 nM and 35 nM, respectively.

For the compound `Cc1cc(-c2ccc(F)cc2Br)c(F)cc1C(=O)Nc1cnc(-n2nccn2)c(Cl)c1` [Example A114], the IC50 against MALT1 was not above 10 nM; in assay [1] it was 34 nM.

For `Cc1cc(-c2ccc(F)cc2Cl)c(F)cc1C(=O)Nc1cnc(-n2nccn2)c(Cl)c1` [Example A115, 2′-chloro-N-(5-chloro-6-(2H-1,2,3-triazol-2-yl)pyridin-3-yl)-2,4′-difluoro-5-methyl-[1,1′-biphenyl]-4-carboxamide], the IC50 is not above 10 nM against MALT1 and 40 nM in assay [1].

Take `Cc1cc(-c2ccc(F)cc2F)c(F)cc1C(=O)Nc1cnc(-n2nccn2)c(Cl)c1` [Example A116, N-(5-chloro-6-(2H-1,2,3-triazol-2-yl)pyridin-3-yl)-2,2′,4′-trifluoro-5-methyl-[1,1′-biphenyl]-4-carboxamide]: the IC50 against MALT1 was not above 10 nM; in assay [1], 54 nM.

With `Nc1ccccc1-c1cc(F)c(C(=O)Nc2cnc(-n3nccn3)c(Cl)c2)cc1Cl` [Example A119, 2′-amino-2-chloro-N-(5-chloro-6-(2H-1,2,3-triazol-2-yl)pyridin-3-yl)-5-fluoro-[1,1′-biphenyl]-4-carboxamide], the IC50 was not above 10 nM at MALT1 and 466 nM in assay [1].

In the case of `Nc1cc(F)ccc1-c1cc(F)c(C(=O)Nc2cnc(-n3nccn3)c(Cl)c2)cc1Cl` [Example A120, 2′-amino-2-chloro-N-(5-chloro-6-(2H-1,2,3-triazol-2-yl)pyridin-3-yl)-4′,5-difluoro-[1,1′-biphenyl]-4-carboxamide], the IC50 at MALT1 was not above 10 nM; in assay [1] it was 57 nM.

As to `Nc1cc(F)ccc1-c1cc(Cl)c(C(=O)Nc2cnc(-n3nccn3)c(Cl)c2)cc1F` [Example A121, 2′-amino-5-chloro-N-(5-chloro-6-(2H-1,2,3-triazol-2-yl)pyridin-3-yl)-2,4′-difluoro-[1,1′-biphenyl]-4-carboxamide], the figures for the IC50 (at MALT1; in assay [1]) were not above 10 nM and 43 nM, respectively.

Take `Nc1cc(F)ccc1-c1cc(Cl)c(C(=O)Nc2cnc(-n3nccn3)c(C(F)(F)F)c2)cc1F` [Example A122, N-(6-(2H-1,2,3-triazol-2-yl)-5-(trifluoromethyl)pyridin-3-yl)-2′-amino-5-chloro-2,4′-difluoro-[1,1′-biphenyl]-4-carboxamide]: the IC50 against MALT1 was not above 10 nM; in assay [1], 121 nM.

Turning to `Nc1cc(F)ccc1-c1cc(F)c(C(=O)Nc2cnc(-n3nccn3)c(C(F)(F)F)c2)cc1Cl` [Example A123, N-(6-(2H-1,2,3-triazol-2-yl)-5-(trifluoromethyl)pyridin-3-yl)-2′-amino-2-chloro-4′,5-difluoro-[1,1′-biphenyl]-4-carboxamide], the IC50 is not above 10 nM at MALT1 and 58 nM in assay [1].

Regarding `Nc1cnccc1-c1cc(F)c(C(=O)Nc2cnc(-n3nccn3)c(Cl)c2)cc1Cl` [Example A124], the 50% inhibitory concentration (IC50) against MALT1 was not above 10 nM; in assay [1] it was 252 nM.

With `Cc1cc(-c2ccncc2Cl)c(F)cc1C(=O)Nc1cnc(-n2nccn2)c(Cl)c1` [Example A126], the IC50 against MALT1 is not above 10 nM; in assay [1], 136 nM.

Turning to `CNc1cc(F)ccc1-c1cc(F)c(C(=O)Nc2cnc(-n3nccn3)c(Cl)c2)cc1Cl` [Example A127, 2-chloro-N-(5-chloro-6-(2H-1,2,3-triazol-2-yl)pyridin-3-yl)-4′,5-difluoro-2′-(methylamino)-[1,1′-biphenyl]-4-carboxamide], the IC50 was not above 10 nM on MALT1 and 444 nM in assay [1].

On to `O=C(Nc1cnc(-n2nccn2)c(Cl)c1)c1cc(F)c(-c2ccc(F)cc2CO)cc1Cl` [Example A281], for which the IC50 against MALT1 was not above 10 nM; in assay [1], 77 nM.

In the case of `C#Cc1cncc(N)c1-c1cc(Cl)c(C(=O)Nc2cnc(-n3nccn3)c(C(F)(F)F)c2)cc1F` [Example A410, N-(6-(2H-1,2,3-triazol-2-yl)-5-(trifluoromethyl)pyridin-3-yl)-4-(3-amino-5-ethynylpyridin-4-yl)-2-chloro-5-fluorobenzamide], the values for the 50% inhibitory concentration (IC50) (against MALT1; in assay [1]) were not above 10 nM and 66 nM, respectively.

With `C#Cc1cncc(N)c1-c1cc(Cl)c(C(=O)Nc2cnc(-n3nccn3)c(Cl)c2)cc1F` [Example A411, 4-(3-amino-5-ethynylpyridin-4-yl)-2-chloro-N-(5-chloro-5-(2H-1,2,3-triazol-2-yl)pyridin-3-yl)-5-fluorobenzamide], the IC50 at MALT1 was not above 10 nM; in assay [1] it was 17 nM.

As to `C#Cc1cc(F)cc(N)c1-c1cc(Cl)c(C(=O)Nc2cnc(-n3nccn3)c(Cl)c2)cc1F` [Example A412], the results for the IC50 (on MALT1; in assay [1]) were not above 10 nM and 32 nM, respectively.

Consider `C#Cc1cnccc1-c1cc(Cl)c(C(=O)Nc2cnc(C(=O)NC)c(Cl)c2)cc1F` [Example A426, 3-chloro-5-(2-chloro-4-(3-ethynylpyridin-4-yl)-5-fluorobenzamido)-N-methylpicolinamide], for which the IC50 against MALT1 was not above 10 nM; in assay [1], 77 nM.

On to `C#Cc1cnccc1-c1cc(Cl)c(C(=O)Nc2cnc(C(=O)NCC#N)c(Cl)c2)cc1F` [Example A427, 3-chloro-5-(2-chloro-4-(3-ethynylpyridin-4-yl)-5-fluorobenzamido)-N-(cyanomethyl)picolinamide], for which the IC50 at MALT1 was not above 10 nM; in assay [1], 77 nM.

Regarding `C#Cc1cnccc1-c1cc(Cl)c(C(=O)Nc2cnc(C(=O)NCC)c(Cl)c2)cc1F` [Example A428, 3-chloro-5-(2-chloro-4-(3-ethynylpyridin-4-yl)-5-fluorobenzamido)-N-ethylpicolinamide], the IC50 on MALT1 is not above 10 nM; in assay [1], 164 nM.

In the case of `C#Cc1cncc(N)c1-c1cc(Cl)c(C(=O)Nc2cnc(C(=O)NCC(F)(F)F)c(Cl)c2)cc1F` [Example A470, 5-(4-(3-amino-5-ethynylpyridin-4-yl)-2-chloro-5-fluorobenzamido)-3-chloro-N-(2,2,2-trifluoroethyl)picolinamide], the results for the IC50 (against MALT1; in assay [1]) were not above 10 nM and 113 nM, respectively.

Take `Nc1cncc(C2CC2)c1-c1cc(Cl)c(C(=O)Nc2cnc(-n3nccn3)c(Cl)c2)cc1F` [Example A506, 4-(3-amino-5-cyclopropylpyridin-4-yl)-2-chloro-N-(5-chloro-6-(2H-1,2,3-triazol-2-yl)pyridin-3-yl)-5-fluorobenzamide]: the IC50 was not above 10 nM on MALT1 and 76 nM in assay [1].
